These results are taken from patent US20260022142A1, “MACROCYCLIC IMMUNOMODULATORS” (Bristol-Myers Squibb Company, priority 2022, published 2026).

For orientation: IC50 means the concentration at which inhibition is half-maximal.

Bridge positions count the residues as written; N and C are the ends. Square brackets hold non-standard residues; d marks the D form. Peptide text beside a SMILES is read from it. * marks the point of attachment. ξ: configuration not given here. Ala(morpholin-4-yl) = N[C@@H](CN1CCOCC1)C(=O)O; Phe(4-COOH) = N[C@@H](Cc1ccc(C(=O)O)cc1)C(=O)O; Bip = N[C@@H](Cc1ccc(-c2ccccc2)cc1)C(=O)O; Phe(3-Me) = Cc1cccc(C[C@H](N)C(=O)O)c1; NH(CH2)12COOH = O=C(O)CCCCCCCCCCCCN*; Val(3-OH) = CC(C)(O)[C@H](N)C(=O)O; hArg = N=C(N)NCCCC[C@H](N)C(=O)O; 4Pal = N[C@@H](Cc1ccncc1)C(=O)O; Cha = N[C@@H](CC1CCCCC1)C(=O)O; Thr(3ξ) = CC(O)[C@H](N)C(=O)O; 12Ado = NCCCCCCCCCCCC(=O)O; dDab = NCC[C@@H](N)C(=O)O; Carboxymethyl = O=C(O)C*; Orn = NCCC[C@H](N)C(=O)O; Aun = NCCCCCCCCCCC(=O)O; Dab = NCC[C@H](N)C(=O)O; Dap = NC[C@H](N)C(=O)O; AEEA = NCCOCCOCC(=O)O; ξC = NC(CS)C(=O)O; Sar = CNCC(=O)O

T1 sequence (Q15116 25-288): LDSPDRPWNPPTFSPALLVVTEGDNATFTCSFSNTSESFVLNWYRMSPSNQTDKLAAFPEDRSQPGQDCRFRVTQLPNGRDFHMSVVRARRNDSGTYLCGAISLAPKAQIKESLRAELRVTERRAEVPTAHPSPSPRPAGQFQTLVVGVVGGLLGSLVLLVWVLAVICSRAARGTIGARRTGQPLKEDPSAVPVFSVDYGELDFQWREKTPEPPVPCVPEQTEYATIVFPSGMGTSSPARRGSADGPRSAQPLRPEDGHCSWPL

The assay has as its target T1, PD-1/PD-L1 interaction (PE-labeled human PD-L1-Ig binding to Jurkat cell line over-expressing human PD-1) (Homo sapiens, UniProt Q15116).
T1 construct: expressed in transfected cells; host or cells: Jurkat
The experiment in a line: Jurkat-PD-1 Cell Binding High-Content Screening Assay (CBA). In kind it is cell-based. To be noted: Jurkat cell line over-expressing human PD-1; PE-labeled PD-L1-Ig 20 nM final; read-out: Jurkat hPD1-PDL1 IC50. In a few lines: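 First, compound is added to PD-1-expressing Jurkat cells in serum-containing DMEM and left 2 h at 37° C. Next, PE-conjugated PD-L1-Ig is introduced at 20 nM final concentration for 1 hour. Finally, cells are fixed in 4% paraformaldehyde with Hoechst 33342, washed and imaged.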
For `CC(C)C[C@H]1NC(=O)[C@H](CCCN)NC(=O)[C@H](C(C)C)NC(=O)[C@H](Cc2ccc(-c3ccccc3)cc2)NC(=O)[C@H](C(C)C)NC(=O)[C@H](Cc2c[nH]c3ccccc23)NC(=O)[C@H](CC(=O)O)NC(=O)[C@H](Cc2ccc(OCC(=O)O)cc2)NC(=O)[C@H](C(C)O)NC(=O)CSC[C@@H](C(=O)N[C@@H](CCN)C(=O)NCCCCCCCCCCC(=O)O)NC(=O)[C@H](CO)NC(=O)[C@H](C(C)O)NC(=O)[C@H](CC2CCCCC2)NC(=O)[C@H](CCN)NC1=O` (stereo partly drawn) [Compound 3664] ({CH2CO}-[Thr(3ξ)]Y(Carboxymethyl)DWV[Bip]V[Orn][dL][Dab][Cha][Thr(3ξ)]SC[Dab][Aun]-OH; thioether N-14), the half-inhibitory concentration (IC50) was determined as 27.7 nM. To `CC(C)C[C@H]1NC(=O)[C@H](CCCN)NC(=O)[C@H](C(C)C)NC(=O)[C@H](Cc2ccc(-c3ccccc3)cc2)NC(=O)[C@H](C(C)C)NC(=O)[C@H](Cc2c[nH]c3ccccc23)NC(=O)[C@H](CC(=O)O)NC(=O)[C@H](Cc2ccc(OCC(=O)O)cc2)NC(=O)[C@H](CN)NC(=O)CSCC(C(=O)N[C@H](CCN)C(=O)NCCCCCCCCCCC(=O)O)NC(=O)[C@H]([C@@H](C)O)NC(=O)[C@H](C(C)C)NC(=O)[C@H](CC2CCCCC2)NC(=O)[C@H](Cc2cnc[nH]2)NC1=O` (stereo partly drawn) [Compound 1118] ({CH2CO}-[Dap]Y(Carboxymethyl)DWV[Bip]V[Orn][dL]H[Cha]VT[ξC][dDab][Aun]-OH; thioether N-14) belongs 30.7 nM. The same measure for `Cc1cccc(C[C@@H]2NC(=O)[C@H](CC(=O)O)NC(=O)[C@H](Cc3ccc(OCC(=O)O)cc3)NC(=O)[C@H](CN)NC(=O)CSC[C@@H](C(=O)N[C@@H](CCN)C(=O)NCCOCCOCC(=O)NCCCCCCCCCCC(=O)O)NC(=O)[C@H](CCCN)NC(=O)[C@H](C(C)C)NC(=O)[C@H](CC3CCCCC3)NC(=O)[C@H](CCN)NC(=O)[C@@H](CC(C)C)NC(=O)[C@H](CCCN)NC(=O)[C@H](Cc3ccc(OCC(=O)O)cc3)NC(=O)[C@H](Cc3ccc(-c4ccccc4)cc3)NC(=O)[C@H](C(C)C)NC2=O)c1` [Compound 2061] ({CH2CO}-[Dap]Y(Carboxymethyl)D[Phe(3-Me)]V[Bip]Y(Carboxymethyl)[Orn][dL][Dab][Cha]V[Orn]C[Dab][AEEA][Aun]-OH; thioether N-14): 3.9 nM; for `Cc1cccc(C[C@@H]2NC(=O)[C@H](CC(=O)O)NC(=O)[C@H](Cc3ccc(OCC(=O)O)cc3)NC(=O)[C@H](C(C)O)NC(=O)CSC[C@@H](C(=O)NCCOCCOCC(=O)NCCCCCCCCCCC(=O)O)NC(=O)[C@H](CCCCN)NC(=O)[C@H](C(C)C)NC(=O)[C@H](CC3CCCCC3)NC(=O)[C@H](CCN)NC(=O)[C@@H](CC(C)C)NC(=O)[C@H](CCN)NC(=O)[C@H](C(C)C)NC(=O)[C@H](Cc3ccc(-c4ccccc4)cc3)NC(=O)[C@H](C(C)C)NC2=O)c1` (stereo partly drawn) [Compound 3257] ({CH2CO}-[Thr(3ξ)]Y(Carboxymethyl)D[Phe(3-Me)]V[Bip]V[Dab][dL][Dab][Cha]VKC[AEEA][Aun]-OH; thioether N-14): 5.3 nM; for `Cc1cccc(C[C@@H]2NC(=O)[C@H](CC(=O)O)NC(=O)[C@H](Cc3ccc(OCC(=O)O)cc3)NC(=O)[C@H](CCCNC(=N)N)NC(=O)CSC[C@@H](C(=O)N[C@@H](CCCCN)C(=O)N[C@@H](CO)C(=O)NCCCCCCCCCCCC(=O)O)NC(=O)[C@H](C(C)O)NC(=O)[C@H](C(C)C)NC(=O)[C@H](CC3CCCCC3)NC(=O)[C@H](CCN)NC(=O)[C@@H](CC(C)C)NC(=O)[C@H](CCCN)NC(=O)[C@H](CCCNC(=N)N)NC(=O)[C@H](Cc3ccc(-c4ccccc4)cc3)NC(=O)[C@H](Cc3ccc(O)cc3)NC2=O)c1` (stereo partly drawn) [Compound 3550] ({CH2CO}-RY(Carboxymethyl)D[Phe(3-Me)]Y[Bip]R[Orn][dL][Dab][Cha]V[Thr(3ξ)]CKS[12Ado]-OH; thioether N-14): 76.2 nM. To `CC(C)C[C@H]1NC(=O)[C@H](CCCN)NC(=O)[C@H](Cc2ccc(O)cc2)NC(=O)[C@H](Cc2ccc(-c3ccccc3)cc2)NC(=O)[C@H](C(C)C)NC(=O)[C@H](Cc2c[nH]c3ccccc23)NC(=O)[C@H](CC(=O)O)NC(=O)[C@H](Cc2ccc(OCC(=O)O)cc2)NC(=O)[C@H](Cc2ccncc2)NC(=O)CSC[C@@H](C(=O)N[C@@H](CCN)C(=O)NCCOCCOCC(=O)NCCCCCCCCCCC(=O)O)NC(=O)[C@H](CCCN)NC(=O)[C@H](C(C)C)NC(=O)[C@H](CC2CCCCC2)NC(=O)[C@H](CCN)NC1=O` [Compound 2701] ({CH2CO}-[4Pal]Y(Carboxymethyl)DWV[Bip]Y[Orn][dL][Dab][Cha]V[Orn]C[Dab][AEEA][Aun]-OH; thioether N-14) belongs 6.7 nM. Consider `CC(=O)NCCCC[C@@H]1NC(=O)[C@H](C(C)C)NC(=O)[C@H](CC2CCCCC2)NC(=O)[C@H](CCN)NC(=O)[C@@H](CC(C)C)NC(=O)[C@H](CCCN)NC(=O)[C@H](C(C)C)NC(=O)[C@H](Cc2ccc(-c3ccccc3)cc2)NC(=O)[C@H](C(C)C)NC(=O)[C@H](Cc2c[nH]c3ccccc23)NC(=O)[C@H](CC(=O)O)NC(=O)[C@H](Cc2ccc(OCC(=O)O)cc2)NC(=O)[C@H](CCCNC(=N)N)NC(=O)CSC[C@@H](C(=O)NCCOCCOCC(=O)NCCCCCCCCCCC(=O)O)NC1=O` [Compound 3341] ({CH2CO}-RY(Carboxymethyl)DWV[Bip]V[Orn][dL][Dab][Cha]VK(Ac)C[AEEA][Aun]-OH; thioether N-14), for which the IC50 is 7.4 nM. As to `CC(C)C[C@H]1NC(=O)[C@H](CCCN)NC(=O)[C@H](C(C)C)NC(=O)[C@H](Cc2ccc(-c3ccccc3)cc2)NC(=O)[C@H](C(C)C)NC(=O)[C@H](Cc2c[nH]c3ccccc23)NC(=O)[C@H](CC(=O)O)NC(=O)[C@H](Cc2ccc(OCC(=O)O)cc2)NC(=O)[C@H](CCCCNC(=N)N)NC(=O)CSC[C@@H](C(=O)N(C)CC(=O)NCCOCCOCC(=O)N[C@@H](CCCN)C(=O)NCCCCCCCCCCCC(=O)O)NC(=O)[C@H](CO)NC(=O)[C@H](C(C)C)NC(=O)[C@H](CC2CCCCC2)NC(=O)[C@H](CCN)NC1=O` [Compound 3361] ({CH2CO}-[hArg]Y(Carboxymethyl)DWV[Bip]V[Orn][dL][Dab][Cha]VSC[Sar][AEEA][Orn][12Ado]-OH; thioether N-14), the IC50 turned out to be 18.7 nM. To `Cc1cccc(C[C@@H]2NC(=O)[C@H](CC(=O)O)NC(=O)[C@H](Cc3ccc(OCC(=O)O)cc3)NC(=O)[C@H](CCCCNC(=N)N)NC(=O)CSC[C@@H](C(=O)N[C@@H](CCN)C(=O)N[C@@H](CO)C(=O)NCCCCCCCCCCCC(=O)O)NC(=O)[C@H](C(C)O)NC(=O)[C@H](C(C)O)NC(=O)[C@H](CC3CCCCC3)NC(=O)[C@H](CCN)NC(=O)[C@@H](CC(C)C)NC(=O)[C@H](CCCN)NC(=O)[C@H](CCCNC(=N)N)NC(=O)[C@H](Cc3ccc(-c4ccccc4)cc3)NC(=O)[C@H](C(C)C)NC2=O)c1` (stereo partly drawn) [Compound 3537] ({CH2CO}-[hArg]Y(Carboxymethyl)D[Phe(3-Me)]V[Bip]R[Orn][dL][Dab][Cha][Thr(3ξ)][Thr(3ξ)]C[Dab]S[12Ado]-OH; thioether N-14) belongs 29.9 nM; to `CC(C)C[C@H]1NC(=O)[C@H](CCCN)NC(=O)[C@H](C(C)C)NC(=O)[C@H](Cc2ccc(-c3ccccc3)cc2)NC(=O)[C@H](C(C)C)NC(=O)[C@H](Cc2c[nH]c3ccccc23)NC(=O)[C@H](CC(=O)O)NC(=O)[C@H](Cc2ccc(OCC(=O)O)cc2)NC(=O)[C@H](CN)NC(=O)CSC[C@@H](C(=O)N[C@@H](CCN)C(=O)NCCCCCCCCCCC(=O)O)NC(=O)[C@H](CCC(=O)O)NC(=O)[C@H](C(C)C)NC(=O)[C@H](CC2CCCCC2)NC(=O)[C@H](Cc2c[nH]cn2)NC1=O` [Compound 2788] ({CH2CO}-[Dap]Y(Carboxymethyl)DWV[Bip]V[Orn][dL]H[Cha]VEC[Dab][Aun]-OH; thioether N-14), 22.3 nM. Regarding `Cc1cccc(C[C@@H]2NC(=O)[C@H](CC(=O)O)NC(=O)[C@H](Cc3ccc(OCC(=O)O)cc3)NC(=O)[C@H](CCCNC(=N)N)NC(=O)CSC[C@@H](C(=O)N[C@@H](CCN)C(=O)NCCCCCCCCCCC(=O)O)NC(=O)[C@H](CO)NC(=O)[C@H](C(C)C)NC(=O)[C@H](CC3CCCCC3)NC(=O)[C@H](CCN)NC(=O)[C@@H](CC(C)C)NC(=O)[C@H](CCCN)NC(=O)[C@H](Cc3ccc(OCC(=O)O)cc3)NC(=O)[C@H](Cc3ccc(-c4ccccc4)cc3)NC(=O)[C@H](Cc3ccc(O)cc3)NC2=O)c1` [Compound 2082] ({CH2CO}-RY(Carboxymethyl)D[Phe(3-Me)]Y[Bip]Y(Carboxymethyl)[Orn][dL][Dab][Cha]VSC[Dab][Aun]-OH; thioether N-14), the concentration for half-maximal inhibition (IC50) worked out at 22.7 nM. To `Cc1cccc(C[C@@H]2NC(=O)[C@H](CC(=O)O)NC(=O)[C@H](Cc3ccc(OCC(=O)O)cc3)NC(=O)[C@H](CN3CCOCC3)NC(=O)CSC[C@@H](C(=O)N[C@@H](CCN)C(=O)NCCOCCOCC(=O)NCCOCCOCC(=O)NCCCCCCCCCCCCC(=O)O)NC(=O)[C@H](CC(=O)O)NC(=O)[C@H](C(C)(C)O)NC(=O)[C@H](CC3CCCCC3)NC(=O)[C@H](CCN)NC(=O)[C@@H](CC(C)C)NC(=O)[C@H](CCCN)NC(=O)[C@H](Cc3ccc(C(=O)O)cc3)NC(=O)[C@H](Cc3ccc(-c4ccccc4)cc3)NC(=O)[C@H](Cc3ccc(C(=O)O)cc3)NC2=O)c1` [Compound 2899] ({CH2CO}-[Ala(morpholin-4-yl)]Y(Carboxymethyl)D[Phe(3-Me)][Phe(4-COOH)][Bip][Phe(4-COOH)][Orn][dL][Dab][Cha][Val(3-OH)]DC[Dab][AEEA][AEEA]-{NH(CH2)12COOH}; thioether N-14) belongs 5.4 nM; to `Cc1cccc(C[C@@H]2NC(=O)[C@H](CC(=O)O)NC(=O)[C@H](Cc3ccc(O)cc3)NC(=O)[C@H]([C@@H](C)O)NC(=O)CSC[C@@H](C(=O)N[C@@H](CCN)C(=O)NCCOCCOCC(=O)NCCCCCCCCCCCCC(=O)O)NC(=O)[C@H](CO)NC(=O)[C@H](C(C)(C)O)NC(=O)[C@H](CC3CCCCC3)NC(=O)[C@H](CCN)NC(=O)[C@@H](CC(C)C)NC(=O)[C@H](CCCN)NC(=O)[C@H](Cc3ccc(OCC(=O)O)cc3)NC(=O)[C@H](Cc3ccc(-c4ccccc4)cc3)NC(=O)[C@H](Cc3ccc(OCC(=O)O)cc3)NC2=O)c1` [Compound 2250] ({CH2CO}-TYD[Phe(3-Me)]Y(Carboxymethyl)[Bip]Y(Carboxymethyl)[Orn][dL][Dab][Cha][Val(3-OH)]SC[Dab][AEEA]-{NH(CH2)12COOH}; thioether N-14), 18 nM.
